Data on 1 compound can be found in article PMC7486443, “Generation of Phenothiazine with Potent Anti-TLK1 Activity for Prostate Cancer Therapy” (iScience, 2020).

Targets include CAMK1 (Homo sapiens, UniProt Q14012); EGFR (Homo sapiens, UniProt P00533); EPHB2 (Homo sapiens, UniProt P29323); MAP3K15 (Homo sapiens, UniProt Q6ZN16); MELK (Homo sapiens, UniProt Q14680); PIK3CA(H1047L) (Homo sapiens, UniProt P42336, H1047L); PRKG2 (Homo sapiens, UniProt Q13237); SRC (Homo sapiens, UniProt P12931); TAOK2 (Homo sapiens, UniProt Q9UL54); TESK1 (Homo sapiens, UniProt Q15569); VRK2 (Homo sapiens, UniProt Q86Y07).

Common to all, as to assay: biochemical
Common to all, as to parameters: DiscoverX KINOMEscan scanMAX competition binding panel, single concentration, percent of control; remaining binding: dose or concentration left out as unconfirmed
What all share (conditions): KINOMEscan binding, percent of control; read-out: Table S4_SCANMAX REPORT - related to Fig. 1 / Percent Control

Assay [1] addresses T1, ABL1(F317L)-nonphosphorylated (Homo sapiens, UniProt P00519, F317L).
T1 construct: nonphosphorylated

In another assay the target is T2, HPK1 (Homo sapiens, UniProt Q92918).
T2 construct: gene MAP4K1

In a further assay the target is T3, MEK3 (Homo sapiens, UniProt P46734).
T3 construct: gene MAP2K3

The target of the next assay is T4, MEK5 (Homo sapiens, UniProt Q13163).
T4 construct: gene MAP2K5

A further assay concerns the target T5, MINK (Homo sapiens, UniProt Q8N4C8).
T5 construct: gene MINK1

The next assay deals with T6, PFCDPK1(P.falciparum) (Plasmodium falciparum, UniProt P62344).
T6 construct: gene CDPK1

A further assay deals with T7, p38-alpha (Homo sapiens, UniProt Q16539).
T7 construct: gene MAPK14

T1 sequence (P00519 whole entry F317L): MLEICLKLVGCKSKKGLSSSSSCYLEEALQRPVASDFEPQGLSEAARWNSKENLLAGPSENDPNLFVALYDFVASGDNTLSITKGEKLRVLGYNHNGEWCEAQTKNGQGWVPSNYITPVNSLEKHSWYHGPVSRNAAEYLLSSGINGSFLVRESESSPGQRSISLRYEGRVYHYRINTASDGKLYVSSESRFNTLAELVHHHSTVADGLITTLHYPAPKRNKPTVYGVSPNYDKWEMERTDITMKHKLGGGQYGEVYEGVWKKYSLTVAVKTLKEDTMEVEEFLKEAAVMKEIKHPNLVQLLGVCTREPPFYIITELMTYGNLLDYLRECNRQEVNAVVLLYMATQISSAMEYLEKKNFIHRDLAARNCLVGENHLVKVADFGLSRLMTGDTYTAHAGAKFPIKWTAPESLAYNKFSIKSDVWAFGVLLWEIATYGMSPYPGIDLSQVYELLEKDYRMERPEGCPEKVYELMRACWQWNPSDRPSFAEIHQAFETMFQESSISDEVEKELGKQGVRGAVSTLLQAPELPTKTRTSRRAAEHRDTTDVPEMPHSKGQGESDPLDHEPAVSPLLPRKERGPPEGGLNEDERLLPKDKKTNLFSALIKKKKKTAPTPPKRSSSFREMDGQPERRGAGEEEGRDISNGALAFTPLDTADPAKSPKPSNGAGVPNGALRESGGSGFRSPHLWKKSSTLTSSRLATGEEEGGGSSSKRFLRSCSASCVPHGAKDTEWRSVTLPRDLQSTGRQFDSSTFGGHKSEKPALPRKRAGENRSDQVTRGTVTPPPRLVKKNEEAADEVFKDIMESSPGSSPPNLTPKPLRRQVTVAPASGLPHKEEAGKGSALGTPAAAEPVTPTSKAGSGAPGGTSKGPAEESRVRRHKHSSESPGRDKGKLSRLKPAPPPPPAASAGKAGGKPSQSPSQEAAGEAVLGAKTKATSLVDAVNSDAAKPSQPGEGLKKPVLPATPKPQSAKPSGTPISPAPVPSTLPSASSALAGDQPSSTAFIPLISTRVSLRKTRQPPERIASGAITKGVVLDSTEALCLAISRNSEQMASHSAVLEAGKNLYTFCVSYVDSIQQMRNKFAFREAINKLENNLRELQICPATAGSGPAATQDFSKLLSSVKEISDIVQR
EPHB2, sequence (P29323 whole entry): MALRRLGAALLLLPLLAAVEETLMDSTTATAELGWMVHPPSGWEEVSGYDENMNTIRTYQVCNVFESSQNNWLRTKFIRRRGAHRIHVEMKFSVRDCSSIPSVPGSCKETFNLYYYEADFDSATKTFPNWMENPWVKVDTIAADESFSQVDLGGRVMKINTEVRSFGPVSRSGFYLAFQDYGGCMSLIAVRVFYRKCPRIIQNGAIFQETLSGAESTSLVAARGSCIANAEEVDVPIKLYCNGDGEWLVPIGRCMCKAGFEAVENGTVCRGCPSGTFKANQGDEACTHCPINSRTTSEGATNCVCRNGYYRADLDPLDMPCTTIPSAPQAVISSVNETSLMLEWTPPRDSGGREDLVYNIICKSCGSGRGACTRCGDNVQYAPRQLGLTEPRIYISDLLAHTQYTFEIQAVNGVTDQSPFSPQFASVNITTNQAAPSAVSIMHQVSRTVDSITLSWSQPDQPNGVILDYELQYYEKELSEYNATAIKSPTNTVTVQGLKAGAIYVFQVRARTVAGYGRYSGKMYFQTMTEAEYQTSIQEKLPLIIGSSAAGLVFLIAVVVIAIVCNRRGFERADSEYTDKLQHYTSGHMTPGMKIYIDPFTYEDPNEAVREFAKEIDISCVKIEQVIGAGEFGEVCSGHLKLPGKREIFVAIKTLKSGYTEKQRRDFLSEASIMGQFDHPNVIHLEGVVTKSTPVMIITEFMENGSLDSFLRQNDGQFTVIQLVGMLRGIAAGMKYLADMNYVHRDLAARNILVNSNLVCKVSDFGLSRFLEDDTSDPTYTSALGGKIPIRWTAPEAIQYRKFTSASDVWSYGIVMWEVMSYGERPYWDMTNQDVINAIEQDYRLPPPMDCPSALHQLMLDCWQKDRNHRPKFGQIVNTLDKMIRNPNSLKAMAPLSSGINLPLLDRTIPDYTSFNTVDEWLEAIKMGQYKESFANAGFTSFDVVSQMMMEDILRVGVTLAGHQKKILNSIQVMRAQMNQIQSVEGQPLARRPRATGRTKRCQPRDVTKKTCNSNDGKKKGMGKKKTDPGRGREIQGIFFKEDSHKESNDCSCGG
EGFR, sequence (P00533 whole entry): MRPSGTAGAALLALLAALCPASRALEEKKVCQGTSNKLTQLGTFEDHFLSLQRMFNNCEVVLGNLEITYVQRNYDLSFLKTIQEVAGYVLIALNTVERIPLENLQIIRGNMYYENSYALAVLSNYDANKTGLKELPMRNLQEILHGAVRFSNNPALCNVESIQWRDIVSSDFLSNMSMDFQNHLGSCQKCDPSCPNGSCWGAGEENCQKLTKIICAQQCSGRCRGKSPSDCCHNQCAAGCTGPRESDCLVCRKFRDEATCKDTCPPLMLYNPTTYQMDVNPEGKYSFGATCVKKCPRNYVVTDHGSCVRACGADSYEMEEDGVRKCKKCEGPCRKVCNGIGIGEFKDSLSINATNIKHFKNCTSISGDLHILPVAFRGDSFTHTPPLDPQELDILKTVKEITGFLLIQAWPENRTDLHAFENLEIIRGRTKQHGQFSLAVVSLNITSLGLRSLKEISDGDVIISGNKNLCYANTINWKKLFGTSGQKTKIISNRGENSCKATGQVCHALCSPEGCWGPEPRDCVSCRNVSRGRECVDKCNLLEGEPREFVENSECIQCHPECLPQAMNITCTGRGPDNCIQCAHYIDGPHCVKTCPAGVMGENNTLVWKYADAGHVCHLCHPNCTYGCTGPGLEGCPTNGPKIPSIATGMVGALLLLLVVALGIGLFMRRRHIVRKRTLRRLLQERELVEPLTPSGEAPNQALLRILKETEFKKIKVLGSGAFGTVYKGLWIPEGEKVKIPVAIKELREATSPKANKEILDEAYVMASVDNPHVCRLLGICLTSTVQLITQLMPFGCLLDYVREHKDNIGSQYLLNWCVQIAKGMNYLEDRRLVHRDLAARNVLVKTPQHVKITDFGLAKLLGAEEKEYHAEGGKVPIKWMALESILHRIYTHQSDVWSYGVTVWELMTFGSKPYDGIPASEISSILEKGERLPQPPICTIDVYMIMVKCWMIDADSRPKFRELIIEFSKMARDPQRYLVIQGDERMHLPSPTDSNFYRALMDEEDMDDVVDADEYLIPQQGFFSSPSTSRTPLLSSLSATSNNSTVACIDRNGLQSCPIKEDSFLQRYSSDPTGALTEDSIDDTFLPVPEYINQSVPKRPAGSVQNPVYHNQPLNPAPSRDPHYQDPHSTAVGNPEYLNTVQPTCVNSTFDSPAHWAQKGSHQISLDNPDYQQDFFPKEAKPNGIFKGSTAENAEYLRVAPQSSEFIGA
TESK1, sequence (Q15569 whole entry): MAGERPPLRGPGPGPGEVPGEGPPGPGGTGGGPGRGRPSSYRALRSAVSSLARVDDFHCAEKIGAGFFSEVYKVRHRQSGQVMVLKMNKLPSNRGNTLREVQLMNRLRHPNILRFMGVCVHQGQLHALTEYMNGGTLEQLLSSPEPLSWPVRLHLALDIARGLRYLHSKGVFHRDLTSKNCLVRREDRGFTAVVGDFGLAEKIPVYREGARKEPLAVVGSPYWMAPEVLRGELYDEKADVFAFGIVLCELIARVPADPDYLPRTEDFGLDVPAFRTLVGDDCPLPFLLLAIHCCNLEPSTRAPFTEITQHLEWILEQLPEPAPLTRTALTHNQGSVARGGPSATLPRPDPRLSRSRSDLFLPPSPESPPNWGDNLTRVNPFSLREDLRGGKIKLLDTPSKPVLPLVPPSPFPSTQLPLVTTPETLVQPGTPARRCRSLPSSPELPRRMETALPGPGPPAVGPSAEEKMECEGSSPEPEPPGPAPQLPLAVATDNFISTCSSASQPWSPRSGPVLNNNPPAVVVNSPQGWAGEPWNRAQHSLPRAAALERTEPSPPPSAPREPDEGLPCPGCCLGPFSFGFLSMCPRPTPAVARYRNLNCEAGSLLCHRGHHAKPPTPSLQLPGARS
CAMK1, sequence (Q14012 whole entry): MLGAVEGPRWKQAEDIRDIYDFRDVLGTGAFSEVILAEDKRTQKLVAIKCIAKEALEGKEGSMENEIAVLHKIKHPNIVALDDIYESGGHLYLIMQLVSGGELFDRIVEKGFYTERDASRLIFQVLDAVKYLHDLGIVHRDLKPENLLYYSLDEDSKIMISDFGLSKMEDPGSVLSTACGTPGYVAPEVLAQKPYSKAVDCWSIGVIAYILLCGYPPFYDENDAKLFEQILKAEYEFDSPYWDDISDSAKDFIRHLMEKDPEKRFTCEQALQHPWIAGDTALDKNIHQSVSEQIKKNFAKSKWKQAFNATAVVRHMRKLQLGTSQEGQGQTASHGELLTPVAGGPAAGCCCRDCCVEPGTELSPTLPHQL
SRC, sequence (P12931 whole entry): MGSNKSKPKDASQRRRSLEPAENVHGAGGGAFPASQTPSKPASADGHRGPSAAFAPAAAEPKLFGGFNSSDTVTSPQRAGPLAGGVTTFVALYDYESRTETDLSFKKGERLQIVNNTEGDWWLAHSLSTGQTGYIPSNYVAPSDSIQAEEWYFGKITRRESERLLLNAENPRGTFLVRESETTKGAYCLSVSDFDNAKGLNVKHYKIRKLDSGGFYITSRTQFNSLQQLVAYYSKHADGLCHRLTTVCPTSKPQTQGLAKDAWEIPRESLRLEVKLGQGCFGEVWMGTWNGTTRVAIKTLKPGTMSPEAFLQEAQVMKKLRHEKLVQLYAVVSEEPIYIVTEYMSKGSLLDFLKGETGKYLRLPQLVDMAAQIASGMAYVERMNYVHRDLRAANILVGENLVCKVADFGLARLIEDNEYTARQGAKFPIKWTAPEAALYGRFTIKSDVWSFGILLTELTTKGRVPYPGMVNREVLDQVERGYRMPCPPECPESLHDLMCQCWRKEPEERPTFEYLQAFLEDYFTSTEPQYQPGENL

In the case of `c1ccc2c(c1)Sc1ccccc1N2CCN1CCOCC1` [J54], the remaining binding in [1] was determined as 98%; at CAMK1, 97%; at EGFR, 92%; at EPHB2 it was 100%; on HPK1, 100%; at MAP3K15, 100%. Further, the remaining binding at MEK3 was 100%; on MEK5, 95%; on MELK, 84%; at MINK, 100%; at PFCDPK1(P.falciparum), 100%; at PIK3CA(H1047L), 100%. Further, the remaining binding came out at 99% at PRKG2; 96% at SRC; 100% on TAOK2; 100% on TESK1; 70% on VRK2; 100% on p38-alpha.
